These results are taken from patent publication EP3884941A1, “INFLAMMASOME INHIBITORS AND USE THEREOF” (CENTRO DE INVESTIGACION PRINCIPE FELIPE, priority 2020, dated 2021).

For one assay, the system named is ASC oligomerization. Put plainly: ASC oligomerization assay (DSS crosslinking, immunoblotting). The format is cell-based, human. Particulars: crosslinked pellets, LPS plus nigericin; MM01 10 µM, VX-765 5 µM. The protocol: PMA-differentiated THP-1 cells were seeded at 1x10^6 cells/ml in 6-well plates. Cells were treated with compounds for 30 min, primed with 100 ng/ml LPS for 3h and then stimulated with 10 µM nigericin for 30 min. The supernatants were removed, cells were rinsed in ice-cold PBS and lysed in NP-40 buffer (20 mM HEPES-KOH pH 7.5, 150 mM KCL, 1% NP-40 plus protease inhibitors). Lysates were centrifuged at 330 × g for 10 min at 4 °C. The pellets were washed and resuspended in PBS plus 2 mM disuccinimidyl suberate (DSS) and incubated at RT for 30 min with rotation. Samples were then centrifuged at 330 × g for 10 min at 4 °C. The supernatant was removed, and the cross-linked pellets were resuspended in sample buffer, boiled and analyzed by immunoblotting.
In general terms: Immunoblotting shows a protein as a band on a membrane.

In assay [1] the test system is ASC specks in THP1-ASC-GFP cells. Put plainly: ASC speck assay. The format is cell-based, human. Particulars: THP-1 ASC GFP, LPS 100 ng/mL + nigericin 10 µM; MM01 10 µM, VX-765 5 µM. As for the experimental part:
THP1-ASC-GFP cells were seeded at 1×10^6/ml the day prior to use in experiments on 35 mm glass-bottom culture dishes. The following day medium was replaced containing the indicated inhibitors or vehicle for 30 min. Cells were then primed with 100 ng/ml LPS for 3h and stimulated with 10 µM nigericin for 30 min. Samples were fixed in 4% paraformaldehyde (PFA) for 10 min at RT and washed several times. Coverslips were prepared in mounting medium plus DAPI and analyzed in a Leica SP8 confocal microscope.

For another assay, the target named is T1, caspase-3 (Homo sapiens, UniProt P42574).
T1 sequence (P42574 29-277): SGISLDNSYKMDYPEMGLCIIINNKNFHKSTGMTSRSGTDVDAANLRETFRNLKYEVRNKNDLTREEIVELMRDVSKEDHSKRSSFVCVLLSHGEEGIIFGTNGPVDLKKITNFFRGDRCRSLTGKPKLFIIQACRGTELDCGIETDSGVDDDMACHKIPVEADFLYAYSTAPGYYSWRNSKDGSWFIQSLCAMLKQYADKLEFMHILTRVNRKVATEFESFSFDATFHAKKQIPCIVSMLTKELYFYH
The assay is described as follows: Caspase-3 activation assay. The format is biochemical. Particulars: recombinant caspase-3; MM01 5 µM (Figure 2A). As for the experimental part:
Compounds were incubated with caspase-3 (2 nM) in reaction buffer (100 mM NaCl, 50 mM Hepes pH 7.4, 10 mM DTT, 1 mM EDTA, 10% glycerol, 0.1% CHAPS) for 20 min at RT. Enzyme activity was spectrophotometrically monitored by adding Ac-DEVD-pNA (200 µM) substrate.

In the next assay the target is T2, Apoptosome (Homo sapiens, UniProt O14727).
T2 sequence (O14727 1-1248): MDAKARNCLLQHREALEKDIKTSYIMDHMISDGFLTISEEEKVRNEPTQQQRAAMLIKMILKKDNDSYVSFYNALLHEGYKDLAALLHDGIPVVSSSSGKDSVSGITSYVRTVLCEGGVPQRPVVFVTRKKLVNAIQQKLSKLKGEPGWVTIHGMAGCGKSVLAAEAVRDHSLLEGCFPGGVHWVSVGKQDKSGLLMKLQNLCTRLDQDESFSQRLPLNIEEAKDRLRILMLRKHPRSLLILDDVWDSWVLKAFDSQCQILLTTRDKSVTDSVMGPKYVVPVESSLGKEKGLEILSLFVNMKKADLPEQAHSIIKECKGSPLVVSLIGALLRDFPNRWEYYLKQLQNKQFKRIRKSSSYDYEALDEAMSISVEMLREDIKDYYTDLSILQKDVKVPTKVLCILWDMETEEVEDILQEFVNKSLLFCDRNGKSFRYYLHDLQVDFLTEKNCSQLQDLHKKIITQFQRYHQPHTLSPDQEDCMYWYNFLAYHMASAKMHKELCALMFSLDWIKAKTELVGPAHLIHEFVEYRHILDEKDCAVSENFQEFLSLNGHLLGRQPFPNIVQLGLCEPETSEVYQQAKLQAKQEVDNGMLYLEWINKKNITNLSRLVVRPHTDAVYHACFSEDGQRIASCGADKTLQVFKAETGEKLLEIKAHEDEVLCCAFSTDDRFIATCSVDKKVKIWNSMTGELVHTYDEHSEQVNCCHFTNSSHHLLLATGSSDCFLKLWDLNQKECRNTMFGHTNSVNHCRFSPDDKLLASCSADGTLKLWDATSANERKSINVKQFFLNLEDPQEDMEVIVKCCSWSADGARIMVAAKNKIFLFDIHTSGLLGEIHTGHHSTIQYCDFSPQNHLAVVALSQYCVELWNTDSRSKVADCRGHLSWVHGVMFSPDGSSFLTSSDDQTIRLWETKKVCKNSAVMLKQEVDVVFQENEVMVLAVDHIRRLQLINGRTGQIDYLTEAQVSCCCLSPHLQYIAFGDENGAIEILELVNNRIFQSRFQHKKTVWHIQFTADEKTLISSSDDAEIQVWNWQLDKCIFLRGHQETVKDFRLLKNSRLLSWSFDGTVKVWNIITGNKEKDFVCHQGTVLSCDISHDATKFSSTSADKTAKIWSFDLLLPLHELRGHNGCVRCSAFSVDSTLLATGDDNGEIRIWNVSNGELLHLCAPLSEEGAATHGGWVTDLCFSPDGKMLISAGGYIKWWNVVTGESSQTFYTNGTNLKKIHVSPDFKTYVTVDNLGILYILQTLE
The assay is described as follows: Apoptosome activity assay. The format is biochemical. Particulars: reconstituted in vitro; MM01 5 µM (Figure 2C). As for the experimental part: Apoptosome was reconstituted by incubating rApaf-1 (100 nM) with vehicle (DMSO) or compounds in assay buffer (20 mM HEPES, 10 mMKCI, 1.5 mM MgCI2, 1 mM EDTA, 1 mM EGTA, 1 mM DTT, 0.1 mM PMSF) at 30°C for 30 min. Next, 100 µM dATP and 100 nM Cytc were added and incubated for additional 40 min. Then, caspase-9 (100 nM) was added, and activity was monitored by the Ac-LEHD-afc substrate (50 µM) using a Victor 2 spectrofluorimeter.

Molecules are shown by their SMILES.

With `C=CCN1C(=O)/C(=C2/C(=O)Nc3ccccc32)SC1=S` [MM01], the ASC oligomerization result with ASC oligomerization is on record as “inhibited”. In assay [1], the ASC speck formation result is “inhibited”. Moreover, the caspase-3 activity entry on caspase-3 is listed as “do not act on”. The “inhibition of the apoptosome” value against Apoptosome is given as “No inhibition”.
